Source: patent US8859535B2, “Hydroxy substituted isoquinolinone derivatives” (Novartis AG, priority 2011, dated 2014)

Tests used:
Format in all cases: binding
[1] = biological target: T1, human MDM2 protein (amino acids 2-188) (Homo sapiens, UniProt Q00987); experiment: p53-MDM2 TR-FRET assay, modified (p53-MDM2 Assay 2); conditions: 0.1 nM MDM2, 0.1 nM Europium labeled streptavidin; read-out: IC50 (nM) of p53-Hdm2 inhibition (TR-FRET) Assay 2
T1 construct: human MDM2 protein (amino acids 2-188); made in house
T1 sequence (Q00987 2-188): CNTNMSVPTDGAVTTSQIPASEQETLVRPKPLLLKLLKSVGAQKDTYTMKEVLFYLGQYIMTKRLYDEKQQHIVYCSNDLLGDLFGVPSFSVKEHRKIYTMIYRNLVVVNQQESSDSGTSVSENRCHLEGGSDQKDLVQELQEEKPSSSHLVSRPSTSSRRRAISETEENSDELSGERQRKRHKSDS
Procedure, shortened: (§1)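 Peptide displacement read as 665/620 nm TR-FRET ratio (excitation 340 nm) after 15 min room temperature with 10 nM Cy5-p53 aa18-26, following 15 min preincubation of Eu-streptavidin (0.625 nM) with biotinylated MDM4 aa 2-185 (2.5 nM) or MDM2 aa 2-188 (1.25 nM); IC50 curve-fitted. MDM2 Assay 2: MDM2 and Eu-streptavidin each 0.1 nM.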

[2] = biological target: T1, human MDM2 protein (amino acids 2-188); experiment: p53-MDM2 TR-FRET assay (p53-MDM2 Assay 1); conditions: 1.25 nM MDM2-biotinylated, 10 nM Cy5-p53 peptide; read-out: IC50 (μM) of p53-Hdm2 inhibition (TR-FRET) Assay 1
Procedure, shortened: as §1

[3] = biological target: T2, human MDM4 protein (amino acids 2-185) (Homo sapiens, UniProt O15151); experiment: p53-MDM4 TR-FRET assay (p53-MDM4 Assay 1); conditions: 2.5 nM MDM4-biotinylated, 10 nM Cy5-p53 peptide; read-out: IC50 (μM) of p53-Hdm4 inhibition (TR-FRET) Assay 1
T2 construct: human MDM4 protein (amino acids 2-185); made in house
T2 sequence (O15151 2-185): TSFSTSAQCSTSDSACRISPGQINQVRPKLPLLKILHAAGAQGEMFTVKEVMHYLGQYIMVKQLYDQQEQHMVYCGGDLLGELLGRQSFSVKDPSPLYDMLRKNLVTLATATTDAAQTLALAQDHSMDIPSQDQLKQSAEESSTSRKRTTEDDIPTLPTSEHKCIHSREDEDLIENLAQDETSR
Procedure, shortened: as §1

SMILES | IC50 [1] | IC50 [2] | IC50 [3]
CC[C@@H](C)Oc1cc2c(cc1OC)CC(=O)N(c1ccc(C(C)(O)C3CCN(C(C)=O)CC3)cc1)[C@H]2c1ccc(Cl)cc1 (stereo partly drawn) [Example 52, (S)-2-{4-[1-(1-Acetyl-piperidin-4-yl)-1-hydroxy-ethyl]-phenyl}-7-((R)-sec-butoxy)-1-(4-chloro-phenyl)-6-methoxy-1,4-dihydro-2H-isoquinolin-3-one] | 1.98 nM | 0.0018 µM | 2.32 µM
COc1cc2c(cc1OC(C)C)[C@H](c1ccc(Cl)cc1)N(c1ccc(C(C)(O)C3CCN(CCO)CC3)cc1)C(=O)C2 (stereo partly drawn) [Example 93, (S)-1-(4-Chloro-phenyl)-2-(4-{1-hydroxy-1-[1-(2-hydroxy-ethyl)-piperidin-4-yl]-ethyl}-phenyl)-7-isopropoxy-6-methoxy-1,4-dihydro-2H-isoquinolin-3-one] | 2.3 nM | 0.0027 µM | 3.35 µM
COc1cc2c(cc1OC(C)C)[C@H](c1ccc(Cl)cc1)N(c1ccc(C(C)(O)C3CC4CCC(C3)N4C)cc1)C(=O)C2 (stereo partly drawn) [Example 105, (S)-1-(4-Chloro-phenyl)-2-{4-[1-hydroxy-1-(8-methyl-8-aza-bicyclo[3.2.1]oct-3-yl)-ethyl]-phenyl}-7-isopropoxy-6-methoxy-1,4-dihydro-2H-isoquinolin-3-one] | 2.25 nM | 0.0043 µM | 4.12 µM
COc1cc2c(cc1OC(C)C)[C@H](c1ccc(Cl)cc1)N(c1ccc(C(C)(O)C3CCN(C4CCC4)CC3)cc1)C(=O)C2 (stereo partly drawn) [Example 97, (S)-1-(4-Chloro-phenyl)-2-{4-[1-(1-cyclobutyl-piperidin-4-yl)-1-hydroxy-ethyl]-phenyl}-7-isopropoxy-6-methoxy-1,4-dihydro-2H-isoquinolin-3-one] | 2.4 nM | 0.0025 µM | 2.43 µM
COc1cc2c(cc1OC(C)C)[C@H](c1ccc(Cl)cc1)N(c1ccc([C@@](C)(O)C3CCS(=O)(=O)CC3)cc1)C(=O)C2 [Example 168, (S)-1-(4-Chloro-phenyl)-2-{4-[(S)-1-(1,1-dioxo-hexahydro-1-thiopyran-4-yl)-1-hydroxy-ethyl]-phenyl}-7-isopropoxy-6-methoxy-1,4-dihydro-2H-isoquinolin-3-one] | 1.25 nM | 0.0015 µM | 1.96 µM
COc1cc2c(cc1OC(C)C)[C@H](c1ccc(Cl)cc1)N(c1ccc(C(C)(O)C3CC4CCC(C3)N4C=O)cc1)C(=O)C2 (stereo partly drawn) [Example 111, 3-(1-{4-[(S)-1-(4-Chloro-phenyl)-7-isopropoxy-6-methoxy-3-oxo-3,4-dihydro-1H-isoquinolin-2-yl]-phenyl}-1-hydroxy-ethyl)-8-aza-bicyclo[3.2.1]octane-8-carbaldehyde] | 1.5 nM | 0.0021 µM | 2.55 µM
COc1cc2c(cc1OC(C)C)[C@H](c1ccc(Cl)cc1)N(c1ccc(C(C)(O)C3CC4CCCC(C3)N4)cc1)C(=O)C2 (stereo partly drawn) [Example 116, (S)-2-{4-[1-(9-Aza-bicyclo[3.3.1]non-3-yl)-1-hydroxy-ethyl]-phenyl}-1-(4-chloro-phenyl)-7-isopropoxy-6-methoxy-1,4-dihydro-2H-isoquinolin-3-one] | 3.4 nM | 0.0036 µM | 3.93 µM
COc1cc2c(cc1OC(C)C)[C@H](c1ccc(Cl)cc1)N(c1ccc([C@@](C)(O)C3CCN(C)CC3)cc1)C(=O)C2 (single isomer, unassigned) [Example 94] | 1.06 nM | 0.0016 µM | 1.75 µM
COC(=O)N1CCC(C(C)(O)c2ccc(N3C(=O)Cc4cc(OC)c(OC(C)C)cc4[C@@H]3c3ccc(Cl)cc3)cc2)CC1 (stereo partly drawn) [Example 76, 4-(1-{4-[(S)-1-(4-Chloro-phenyl)-7-isopropoxy-6-methoxy-3-oxo-3,4-dihydro-1H-isoquinolin-2-yl]-phenyl}-1-hydroxy-ethyl)-piperidine-1-carboxylic acid methyl ester] | 2.34 nM | 0.0017 µM | 1.91 µM
COc1cc2c(cc1OC(C)C)[C@H](c1ccc(Cl)cc1)N(c1ccc(C(C)(O)C3CCN(C(=O)F)CC3)cc1)C(=O)C2 (mixture of isomers) [Example 90, 4-(1-{4-[(S)-1-(4-Chloro-phenyl)-7-isopropoxy-6-methoxy-3-oxo-3,4-dihydro-1H-isoquinolin-2-yl]-phenyl}-1-hydroxy-ethyl)-piperidine-1-carbonyl fluoride] | 1.38 nM | 0.0026 µM | 2.31 µM

Second part, the compound after the results:

IC50 [1] | IC50 [2] | IC50 [3] | SMILES
2.52 nM | 0.0048 µM | 4.45 µM | COc1cc2c(cc1OC(C)C)[C@H](c1ccc(Cl)cc1)N(c1ccc(C(C)(O)C3CC4CCC(C3)N4CCO)cc1)C(=O)C2 (stereo partly drawn) [Example 113, (S)-1-(4-Chloro-phenyl)-2-(4-{1-hydroxy-1-[8-(2-hydroxy-ethyl)-8-aza-bicyclo[3.2.1]oct-3-yl]-ethyl}-phenyl)-7-isopropoxy-6-methoxy-1,4-dihydro-2H-isoquinolin-3-one]
2.76 nM | 0.003 µM | 3.46 µM | CCN1C2CCC1CC(C(C)(O)c1ccc(N3C(=O)Cc4cc(OC)c(OC(C)C)cc4[C@@H]3c3ccc(Cl)cc3)cc1)C2 (stereo partly drawn) [Example 112, (S)-1-(4-Chloro-phenyl)-2-{4-[1-(8-ethyl-8-aza-bicyclo[3.2.1]oct-3-yl)-1-hydroxy-ethyl]-phenyl}-7-isopropoxy-6-methoxy-1,4-dihydro-2H-isoquinolin-3-one]
1.55 nM | 0.0028 µM | 2.48 µM | COc1cc2c(cc1OC(C)C)[C@H](c1ccc(Cl)cc1)N(c1ccc(C(C)(O)C3CC4CCC(C3)N4S(C)(=O)=O)cc1)C(=O)C2 (stereo partly drawn) [Example 107, (S)-1-(4-Chloro-phenyl)-2-{4-[1-hydroxy-1-(8-methanesulfonyl-8-aza-bicyclo[3.2.1]oct-3-yl)-ethyl]-phenyl}-7-isopropoxy-6-methoxy-1,4-dihydro-2H-isoquinolin-3-one]
0.961 nM | 0.0009 µM | 1.17 µM | COc1cc2c(cc1OC(C)C)[C@H](c1ccc(Cl)cc1)N(c1ccc([C@@](C)(O)C3CC4CCC(C3)S4(=O)=O)cc1)C(=O)C2 (stereo partly drawn) [Example 174, (S)-1-(4-Chloro-phenyl)-2-{4-[(S)-1-(8,8-dioxo-8-thia-bicyclo[3.2.1]oct-3-yl)-1-hydroxy-ethyl]-phenyl}-7-isopropoxy-6-methoxy-1,4-dihydro-2H-isoquinolin-3-one]
1.85 nM | 0.0023 µM | 2.16 µM | COc1cc2c(cc1OC(C)C)[C@H](c1ccc(Cl)cc1)N(c1ccc(C(C)(O)C3CCN(C(=O)COC(C)=O)CC3)cc1)C(=O)C2 (mixture of isomers) [Example 91, Acetic acid 2-[4-(1-{4-[(S)-1-(4-chloro-phenyl)-7-isopropoxy-6-methoxy-3-oxo-3,4-dihydro-1H-isoquinolin-2-yl]-phenyl}-1-hydroxy-ethyl)-piperidin-1-yl]-2-oxo-ethyl ester]
5.11 nM | 0.0051 µM | 5.39 µM | COc1cc2c(cc1OC(C)C)[C@H](c1ccc(Cl)cc1)N(c1ccc(C(C)(O)C3CC4CCC(C3)N4C3COC3)cc1)C(=O)C2 (stereo partly drawn) [Example 115, (S)-1-(4-Chloro-phenyl)-2-{4-[1-hydroxy-1-(8-oxetan-3-yl-8-aza-bicyclo[3.2.1]oct-3-yl)-ethyl]-phenyl}-7-isopropoxy-6-methoxy-1,4-dihydro-2H-isoquinolin-3-one]
1.84 nM | 0.0036 µM | 2.71 µM | COc1cc2c(cc1OC(C)C)[C@H](c1ccc(Cl)cc1)N(c1ccc(C(C)(O)C3CCN(C(=O)CO)CC3)cc1)C(=O)C2 (mixture of isomers) [Example 92, (S)-1-(4-Chloro-phenyl)-2-(4-{1-hydroxy-1-[1-(2-hydroxy-acetyl)-piperidin-4-yl]-ethyl}-phenyl)-7-isopropoxy-6-methoxy-1,4-dihydro-2H-isoquinolin-3-one]
4.76 nM | 0.0045 µM | 4.92 µM | COc1cc2c(cc1OC(C)C)[C@H](c1ccc(Cl)cc1)N(c1ccc(C(C)(O)C3CC4CCC(C3)N4C(=O)CO)cc1)C(=O)C2 (stereo partly drawn) [Example 114, (S)-1-(4-Chloro-phenyl)-2-(4-{1-hydroxy-1-[8-(2-hydroxy-acetyl)-8-aza-bicyclo[3.2.1]oct-3-yl]-ethyl}-phenyl)-7-isopropoxy-6-methoxy-1,4-dihydro-2H-isoquinolin-3-one]
1.2 nM | 0.0028 µM | 2.84 µM | COc1cc2c(cc1OC(C)C)[C@H](c1ccc(Cl)cc1)N(c1ccc(C(C)(O)C3CC4CCC(C3)O4)cc1)C(=O)C2 (mixture of isomers) [Example 158, (S)-1-(4-Chloro-phenyl)-2-{4-[1-hydroxy-1-(8-oxabicyclo[3.2.1]oct-3-yl)-ethyl]-phenyl}-7-isopropoxy-6-methoxy-1,4-dihydro-2H-isoquinolin-3-one]
